Reference: patent US11779602B2, “Methods of use for CAR T cells” (ENDOCYTE, INC., priority 2018, dated 2023)

How the values were obtained:
[1] = tested on: HOS-FRα tumor; test: CRS toxicity and sodium fluorescein rescue in HOS-FRα tumor-bearing mice; type: in vivo; settings: i.v. ~95 mg/kg on day 13, plasma 6 hours later
Method: All animal care and use were performed according to NIH guidelines and in compliance with protocols approved by the Purdue University Animal Use and Care Committee. Female 4 to 5-week-old NOD/SCID gamma (NSG™) mice (stock number: 005557) were purchased from The Jackson Laboratory (Bar Harbor, Me.). Unless specifically indicated, all animals were maintained on a FA-deficient diet (TestDiet, St. Louis, Mo.) upon arrival and throughout the study. To establish subcutaneous xenografts, MDA-MB-231 and HOS-FRα were implanted in the right flank region at 2.5×10^6 and 1×10^6 cells per animal, respectively. For intravenous xenografts, THP1-FRβ cells were inoculated at 5×10^6 cells per animal. Subcutaneous tumors were measured 2-3 times per week with a caliper and calculated using the ellipsoidal formula (length×width^2)/2. […] All animal doses (CAR-T cells, EC17, sodium fluorescein) were given intravenously.
Depending on the CAR-T cell dose and how EC17 is administered, tumor-bearing mice receiving FITC-specific CAR-T cells can experience severe CRS and varying degrees of body weight loss. Therefore, a CRS grading system (0-5 scale) was developed to empirically assess CRS toxicity from animals' gross morphology and social behavior to allow for better timing of CRS rescue. While grades 0 and 5 indicated normal (no CRS) or death (due to severe CRS), respectively, grades 1, 2, and 3-4 were considered mild, light-to-moderate, and severe CRS (FIG. 57A). In addition, all EC17 doses were intentionally given towards the end of any given day to allow potential CRS symptoms to develop overnight. On the days immediately following each EC17 dose, animals were scored and rescue agents such as sodium fluorescein, folic acid and leucovorin were used to mitigate CRS toxicity. In this particular instance, a batch of E2 CAR-T cells with a high EGFRt+CD4/CD8 ratio (˜93:7) was given to HOS-FRα tumor-bearing mice at a mixture of ˜2.5 million CD8 and ˜33 million CD4 on day 0 (FIG. 57B). […]

[2] = tested on: MDA-MB-231 tumors; test: CAR-T/EC17 therapy, fixed dose and dose de-escalation, in mice bearing MDA-MB-231 tumors; type: in vivo; settings: E2-CAR-T 30 million cells, EC17 dose de-escalation
From the text: The effect of EC17 dose de-escalation was investigated on the anti-tumor activity and the toxicity (body weight changes) of CAR-T therapy. Two different anti-fluorescein scFv were used for the CAR constructions (FIG. 1). The first construct of CAR contains the following domains: antiFL(FITC-E2)scFv-IgG4 hinge (CH2 (L235D, N297Q)-CH3)-CD28 TM-4-1BB-CD3z-T2A-EGFRt. The second construct of CAR contains the following domains: antiFL(FITC-4M5.3)scFv-IgG4 hinge (CH2 (L235D, N297Q)-CH3)-CD28 TM-4-1BB-CD3z-T2A-EGFRt. The nucleic acid sequence and amino acid sequence of the CAR of each construct are shown as SEQ ID NOS:1 to 4. Human T cells were isolated, activated and transduced with a lentiviral vector carrying the appropriate CAR gene. CD4+ T cells with the CAR-modification and CD8+ T cells with the CAR-modification were isolated and cultured separately in vitro for about 7 days. CD4+ CAR-T cells and CD8+ CAR-T cells were mixed at a 1:1 ratio before i.v. administration for animal studies.
The second construct 4M5.3-CAR (antiFL(FITC-4M5.3) scFv-IgG4 hinge (CH2 (L235D, N297Q)-CH3)-CD28 TM-4-1BB-CD3z-T2A-EGFRt) was also evaluated. Mice bearing MDA-MB-231 tumors (150-250 mm^3) were used for in vivo studies to evaluate 4M5.3-CAR-T cells. […]

Q: How did the “effect of rescue on CAR-T cell derived human cytokines” value [1] turn out when `O=C([O-])c1ccccc1-c1c2ccc(=O)cc-2oc2cc([O-])ccc12.[Na+].[Na+]` [sodium fluorescein, reference compound] was run?
A: acted very quickly to reduce CAR-T cell derived human cytokines

Q: What about the “antitumor activity after NaFL rescue” value [2] of the same molecule?
A: antitumor activity is maintained
